# From publication PMC10353187, “Discovery of a new potent oxindole multi-kinase inhibitor among a series of designed 3-alkenyl-oxindoles with ancillary carbonic anhydrase inhibitory activity as antiproliferative agents” (BMC Chemistry, 2023)
# pIC50, pKi: −log10 of the molar value. Like-named read-outs stand apart in the source and are kept apart here.
# What was measured:
# 786-0 = assay: NCI-60 single-dose antiproliferative assay (SRB); assay type: cell-based; conditions: Homo sapiens; 10 μM single dose; 786-0, Renal cancer; read-out: Cell Growth inhibition Percent
# Protocol: (§1) From the newly synthesized compounds, eleven compounds (4c, 4d, 5, 9a, 9b, 11a, 11b, 13b, 13c, 15b, and 15c) were selected by the National Cancer Institute (NCI) Developmental Therapeutics Program (DTP), Bethesda, Maryland, USA for the in vitro anti-proliferative activity evaluation. The selected compounds were examined at 10 μM dose against the NCI 60-cell line panel. This panel consists of nine cell line groups of leukemia, non-small cell lung carcinoma (NSCLC), melanoma, colon, CNS, ovarian, renal, prostate, and breast cancers. The results are reported as mean-graph of the percent growth relative to control and presented as percentage growth inhibition (GI%), furthermore, mean GI% of each compound over all panel cell lines was calculated (Table 1; Additional file 1; S3: In vitro biological activity).
# (§2) From the newly synthesized compounds, eleven compounds were selected by the National Cancer Institute (NCI) Developmental Therapeutics Program (DTP), Bethesda, Maryland, USA for the in vitro anti-proliferative activity evaluation (For further details see supplementary materials).
# (§3) NCI In-vitro Cancer Screening is a two-phase procedure that starts with the assessment of all compounds against the sixty NCI cell line panel depicting leukemia, NSCLC, CNS cancer, melanoma, prostate cancer, breast cancer, renal cancer, colon cancer and ovarian cancer cell lines at a single point of 10μM. The output from the single-dose screen is reportable as a mean graph.
# (§4) The human tumor cell lines of the cancer screening panel were grown in RPMI 1640 medium containing 5% fetal bovine serum and 2 mM L-glutamine. For a typical screening experiment, cells were inoculated into 96 well microtiter plates in […] at plating densities ranging from 5000 to 40,000 cells/well depending on the doubling time of individual cell lines. After cell inoculation, the microtiter plates were incubated at 37 °C, 5% CO2, 95% air and 100% relative humidity for 24 h prior to addition of experimental drugs. After 24 h, two plates of each cell line were fixed in situ with trichloroacetic acid (TCA), to represent a measurement of the cell population for each cell line at the time of drug addition (Tz). Experimental drugs were solubilized in dimethyl sulfoxide at 400-fold the desired final maximum test concentration and stored frozen prior to use. At the time of drug addition, an aliquot of frozen concentrate was thawed and diluted to twice the desired final maximum test concentration with complete medium containing 50 µg/ml gentamicin. Aliquot of 100 µl of the drug dilution was added to the appropriate microtiter wells already containing 100 µl of medium, resulting in the required final drug concentration (10 µM). Triplicate wells were prepared for each individual dose. Following drug addition, the plates were incubated for an additional 48 h at 37 °C, 5% CO2, 95% air, and 100% relative humidity. For adherent cells, the assay was terminated by the addition of cold TCA. Cells were fixed in situ by the gentle addition of 50 µl of cold 50% (w/v) TCA (final concentration, 10% TCA) and incubated for 60 min at 4 °C. The supernatant was discarded, and the plates were washed five times with tap water and air dried. Sulforhodamine B (SRB) solution (100 µl) at 0.4% (w/v) in 1% acetic acid was added to each well, and plates were incubated for 10 min at room temperature. After staining, unbound dye was removed by washing five times with 1% acetic acid and the plates were air dried. Bound stain was subsequently solubilized with 10 mM trizma base, and the absorbance was read on an automated plate reader at a wavelength of 515 nm. For suspension cells, the methodology was the same except that the assay was terminated by fixing settled cells at the bottom of the wells by gently adding 50 µl of 80% TCA (final concentration, 16% TCA). […]
# A498 = assay: NCI-60 single-dose antiproliferative assay (SRB); assay type: cell-based; conditions: Homo sapiens; 10 μM single dose; A498, Renal cancer; read-out: Cell Growth inhibition Percent
# Protocol: as §1, §2, §3, §4
# CAKI-1 = assay: NCI-60 single-dose antiproliferative assay (SRB); assay type: cell-based; conditions: Homo sapiens; 10 μM single dose; CAKI-1, Renal cancer; read-out: Cell Growth inhibition Percent
# Protocol: as §1, §2, §3, §4
# HL-60(TB) = assay: NCI-60 single-dose antiproliferative assay (SRB); assay type: cell-based; conditions: Homo sapiens, 10 μM single dose, Leukemia, read-out: Cell Growth inhibition Percent
# Protocol: as §1, §2, §3, §4
# HOP-92 = assay: NCI-60 single-dose antiproliferative assay (SRB); assay type: cell-based; conditions: Homo sapiens; 10 μM single dose; HOP-92, Non-small cell lung cancer; read-out: Cell Growth inhibition Percent
# Protocol: as §1, §2, §3, §4
# K-562 = assay: NCI-60 single-dose antiproliferative assay (SRB); assay type: cell-based; conditions: Homo sapiens, K562; 10 μM single dose; K-562, Leukemia; read-out: Cell Growth inhibition Percent
# Protocol: as §1, §2, §3, §4
# KM12 = assay: NCI-60 single-dose antiproliferative assay (SRB); assay type: cell-based; conditions: Homo sapiens; 10 μM single dose; KM12, Colon cancer; read-out: Cell Growth inhibition Percent
# Protocol: as §1, §2, §3, §4
# MCF7 = assay: NCI-60 single-dose antiproliferative assay (SRB); assay type: cell-based; conditions: Homo sapiens; 10 μM single dose; MCF7, Breast cancer; read-out: Cell Growth inhibition Percent
# Protocol: as §1, §2, §3, §4
# MDA-MB-231/ATCC = assay: NCI-60 single-dose antiproliferative assay (SRB); assay type: cell-based; conditions: Homo sapiens, 10 μM single dose, Breast cancer, read-out: Cell Growth inhibition Percent
# Protocol: as §1, §2, §3, §4
# NCI-H23 = assay: NCI-60 single-dose antiproliferative assay (SRB); assay type: cell-based; conditions: Homo sapiens; 10 μM single dose; NCI-H23, Non-small cell lung cancer; read-out: Cell Growth inhibition Percent
# Protocol: as §1, §2, §3, §4
# NCI-H522 = assay: NCI-60 single-dose antiproliferative assay (SRB); assay type: cell-based; conditions: Homo sapiens; 10 μM single dose; NCI-H522, Non-small cell lung cancer; read-out: Cell Growth inhibition Percent
# Protocol: as §1, §2, §3, §4
# RPMI-8226 = assay: NCI-60 single-dose antiproliferative assay (SRB); assay type: cell-based; conditions: Homo sapiens; 10 μM single dose; RPMI-8226, Leukemia; read-out: Cell Growth inhibition Percent
# Protocol: as §1, §2, §3, §4
# SK-MEL-5 = assay: NCI-60 single-dose antiproliferative assay (SRB); assay type: cell-based; conditions: Homo sapiens; 10 μM single dose; SK-MEL-5, Melanoma; read-out: Cell Growth inhibition Percent
# Protocol: as §1, §2, §3, §4
# SN12C = assay: NCI-60 single-dose antiproliferative assay (SRB); assay type: cell-based; conditions: Homo sapiens, 10 μM single dose, Renal cancer, read-out: Cell Growth inhibition Percent
# Protocol: as §1, §2, §3, §4
# SR = assay: NCI-60 single-dose antiproliferative assay (SRB); assay type: cell-based; conditions: Homo sapiens, 10 μM single dose, Leukemia, read-out: Cell Growth inhibition Percent
# Protocol: as §1, §2, §3, §4
# T-47D = assay: NCI-60 single-dose antiproliferative assay (SRB); assay type: cell-based; conditions: Homo sapiens, T47D, 10 μM single dose, Breast cancer, read-out: Cell Growth inhibition Percent
# Protocol: as §1, §2, §3, §4
# UO-31 = assay: NCI-60 single-dose antiproliferative assay (SRB); assay type: cell-based, human; conditions: Homo sapiens, UO-31, 10 μM single dose; UO-31, Renal cancer; read-out: Cell Growth inhibition Percent
# Protocol: as §1, §2, §3, §4
# hCA I = hCA I (Homo sapiens, UniProt P00915); assay: Stopped flow CO2 hydrase assay
# hCA I, sequence (P00915 whole entry): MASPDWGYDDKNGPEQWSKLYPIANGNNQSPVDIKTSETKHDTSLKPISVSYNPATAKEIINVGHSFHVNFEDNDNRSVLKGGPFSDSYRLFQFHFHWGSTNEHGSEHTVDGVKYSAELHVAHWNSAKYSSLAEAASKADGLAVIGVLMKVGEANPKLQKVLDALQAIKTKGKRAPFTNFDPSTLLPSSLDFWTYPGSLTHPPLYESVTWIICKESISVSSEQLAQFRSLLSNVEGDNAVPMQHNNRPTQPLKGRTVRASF
# hCA II [1] = target: T1, hCA II (Homo sapiens, UniProt P00918); assay: Stopped flow CO2 hydrase assay
# hCA IX [2] = target: T2, hCA IX (Homo sapiens, UniProt Q16790); assay: Stopped flow CO2 hydrase assay
# hCA XII [3] = target: T3, hCA XII (Homo sapiens, UniProt O43570); assay: Stopped flow CO2 hydrase assay
# T3 sequence (O43570 25-354): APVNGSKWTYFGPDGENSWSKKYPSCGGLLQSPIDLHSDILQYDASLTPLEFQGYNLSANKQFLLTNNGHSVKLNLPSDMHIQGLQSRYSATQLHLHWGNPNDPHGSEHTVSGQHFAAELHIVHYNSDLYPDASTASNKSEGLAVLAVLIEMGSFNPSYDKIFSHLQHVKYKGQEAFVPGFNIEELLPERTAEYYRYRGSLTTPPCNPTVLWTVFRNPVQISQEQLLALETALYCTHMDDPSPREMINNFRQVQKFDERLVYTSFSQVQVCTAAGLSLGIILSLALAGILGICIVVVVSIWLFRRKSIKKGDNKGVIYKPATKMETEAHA
# VEGFRI = conditions: cited from earlier work
# VEGFRII = conditions: cited from earlier work
# VEGFRIII = conditions: cited from earlier work
# FGFRI = conditions: read-out: IC50 FGFRI; cited from earlier work
# FGFRII = conditions: cited from earlier work
# PDGFR α = conditions: cited from earlier work
# PDGF = conditions: Fig. 2, reported multi-kinase inhibitors; cited from earlier work
# PDGFR β = conditions: Fig. 2, reported multi-kinase inhibitors; read-out: PDGFB IC50; cited from earlier work
# [4] = cited from earlier work
# VEGF = conditions: Fig. 2, reported multi-kinase inhibitors; cited from earlier work
# hCA II [5] = target: T1, hCA II; parameters: made in house; method as in PMID 15499993, PMID 12678681, PMID 31313595, PMID 26745009; conditions: reported CAIs, Fig. 1; cited from earlier work
# hCA IX [6] = target: T2, hCA IX; parameters: made in house; conditions: reported CAIs, Fig. 1; cited from earlier work
# hCA XII [7] = target: T3, hCA XII; parameters: made in house; conditions: reported CAIs, Fig. 1; cited from earlier work
smiles,measurement,setting,value
"O=C1Nc2ccccc2C1=CNc1ccc(C(=O)C=CNc2ccc(S(=O)(=O)Nc3ncccn3)cc2)cc1 [Compound 13b, 4-{[3-Oxo-3-(4-{[(2-oxoindolin-3-ylidene)methyl]amino}phenyl)prop-1-en-1-yl]amino}-N-(pyrimidin-2-yl)benzenesulfonamide]",inhibition at 10 µM,786-0,3.85%
same,inhibition at 10 µM,A498,1.46%
same,inhibition at 10 µM,CAKI-1,5.62%
same,inhibition at 10 µM,HL-60(TB),0.37%
same,inhibition at 10 µM,HOP-92,6.38%
same,inhibition at 10 µM,K-562,2.89%
same,inhibition at 10 µM,KM12,62.7%
same,inhibition at 10 µM,MCF7,12.6%
same,inhibition at 10 µM,MDA-MB-231/ATCC,0.12%
same,inhibition at 10 µM,NCI-H23,3.53%
same,inhibition at 10 µM,NCI-H522,1.35%
same,inhibition at 10 µM,RPMI-8226,13.6%
same,inhibition at 10 µM,SK-MEL-5,1.85%
same,inhibition at 10 µM,SN12C,1.75%
same,inhibition at 10 µM,SR,17.9%
same,inhibition at 10 µM,T-47D,6.91%
same,inhibition at 10 µM,UO-31,7.6%
same,melting point,,290 to 294 °C
same,pKi,hCA I,< 5.00
same,pKi,hCA II [1],< 5.00
same,pKi,hCA IX [2],< 5.00
same,pKi,hCA XII [3],< 5.00
COC(=O)c1ccc2c(c1)NC(=O)/C2=C(\Nc1ccc(N(C)C(=O)CN2CCN(C)CC2)cc1)c1ccccc1 [Nintedanib],pIC50,VEGFRI; read-out: IC50 VEGFRI,7.47
same,pIC50,VEGFRII; read-out: IC50 VEGFRII,7.89
same,pIC50,VEGFRIII,7.89
same,pIC50,FGFRI,7.16
same,pIC50,FGFRII,7.43
same,pIC50,PDGFR α,7.23
same,pIC50,PDGF,7.23
CNC(=O)c1cc(Oc2ccc(NC(=O)Nc3ccc(Cl)c(C(F)(F)F)c3)c(F)c2)ccn1 [Regorafenib],pIC50,"VEGFRI; Fig. 2, reported multi-kinase inhibitors, read-out: VEGFI IC50",7.89
same,pIC50,"VEGFRII; Fig. 2, reported multi-kinase inhibitors, read-out: VEGFII IC50",7.38
same,pIC50,PDGFR β,7.66
CCN(CC)CCNC(=O)c1c(C)[nH]c(/C=C2\C(=O)Nc3ccc(F)cc32)c1C [Sunitinib],pIC50,"[4]; Fig. 2, read-out: cytotoxicity average IC50",5.09
same,pIC50,PDGF,8.70
same,pIC50,VEGF,7.10
COc1ccc(C2=NN(c3nc4ccccc4s3)C(c3cc(OC)c(OC)c(OC)c3)C2)cc1 (stereo not drawn) [VIII],Tumor selectivity (TS),[4]; Fig. 1,29.3
same,pIC50,"[4]; Fig. 1, read-out: Cytotoxicity average IC50",4.73
same,pKi,hCA II [5],4.64
O=S(=O)(Nc1nc2ccc(Cl)cc2s1)c1ccc(F)cc1 [VI],pKi,hCA IX [6],6.02
same,pKi,hCA XII [7],7.07
O=C(O)c1cc(Sc2ccccn2)cc([N+](=O)[O-])c1 [V],pKi,hCA IX [6],7.74
same,pKi,hCA XII [7],7.09
